Laboratory results as given in US20100239669A1, “Combinations of statins and anti-obesity agent” (Scidose LLC, priority 2007, published 2010).

Test: Patient on atorvastatin with orlistat added (co-therapy)
Type: in vivo, human
Method: A patient on atorvastatin 80 mg once daily is found to still be in need of reducing weight, triglyceride, and cholesterol levels further. […] The patient is maintained on this regimen for 2 months and thereafter the atorvastatin dosage is reduced to 60 mg once daily at which the reductions previously obtained are maintained. The patient is then switched to a fixed combination dosage form of 120 mg orlistat and 60 mg atorvastatin once daily. A patient on atorvastatin 10 mg once daily is found to be in need of weight reduction and triglyceride reduction, although cholesterol levels are adequately maintained by the atorvastatin. Orlistat 120 mg once daily is added to the regimen and each of weight, triglycerides and cholesterol drop. […] The patient is then changed to a fixed combination of 120 mg orlistat and 5 mg of atorvastatin.

CCCCCCCCCCC[C@@H](C[C@@H]1OC(=O)[C@H]1CCCCCC)OC(=O)[C@H](CC(C)C)NC=O [orlistat, N-formyl-L-leucine ester of (3S,4S)-3-hexyl-4-[(2S)-2-hydroxytridecyl]-2-oxetanone]
weight, serum triglycerides, and cholesterol (Example 1: 120 mg once daily orlistat added to atorvastatin 80 mg once daily): begins to lower | reductions previously obtained (weight, triglycerides, cholesterol) (Example 1: after 2 months atorvastatin reduced to 60 mg once daily, orlistat 120 mg once daily): maintained | lowered weight, triglycerides, and cholesterol levels (Example 2: after 6 weeks, 120 mg orlistat once daily and 5 mg atorvastatin once daily): surprisingly maintains | weight, triglycerides and cholesterol (Example 2: orlistat 120 mg once daily added to atorvastatin 10 mg once daily): drop
